Results reported in patent US6982276B2, “Polymorphs of an epothilone analog” (Bristol-Myers Squibb Company, priority 2000, dated 2006).

Experiment: Solution calorimetry (Thermometrics Microcalorimeter) in ethanol at 25° C.
Format: physicochemical
Details: for Heat of Solution: in ethanol at 25° C.
Description: Solution calorimetry was determined using a Thermometrics Microcalorimeter in ethanol at 25° C. The solubilities were likewise determined at 25° C.

| Relative stability of the polymorph forms (concluded from the data, particularly the heat of solution) | Heat of Solution | SMILES |
| --- | --- | --- |
| more stable | 4.92 kcal/mol | C/C(=C\c1csc(C)n1)[C@@H]1CC2O[C@]2(C)CCC[C@H](C)[C@H](O)[C@@H](C)C(=O)C(C)(C)[C@@H](O)CC(=O)N1 (single isomer, unassigned) [Form A, [1S-[1R*,3R*(E),7R*,10S*,11R*,12R*,16S*]]-7,11-Dihydroxy-8,8,10,12,16-pentamethyl-3-[1-methyl-2-(2-methyl-4-thiazolyl)ethenyl]-4-aza-17-oxabicyclo[14.1.0]heptadecane-5,9-dione, Form A] |
| – | 2.36 kcal/mol | C/C(=C\c1csc(C)n1)[C@@H]1CC2O[C@]2(C)CCC[C@H](C)[C@H](O)[C@@H](C)C(=O)C(C)(C)[C@@H](O)CC(=O)N1 (single isomer, unassigned) [Form B, [1S-[1R*,3R*(E),7R*,10S*,11R*,12R*,16S*]]-7,11-Dihydroxy-8,8,10,12,16-pentamethyl-3-[1-methyl-2-(2-methyl-4-thiazolyl)ethenyl]-4-aza-17-oxabicyclo[14.1.0]heptadecane-5,9-dione, Form B] |
